Measurements taken from article PMC9013686, “Inter-individual variation in chlorpyrifos toxicokinetics characterized by physiologically based kinetic (PBK) and Monte Carlo simulation comparing human liver microsome and Supersome™ cytochromes P450 (CYP)-specific kinetic data as model input” (Archives of Toxicology, 2022).
Like-named read-outs stand apart in the source and are kept apart here.

How the values were obtained:
pooled HLMs (CYPs) = conditions: cited from earlier work
CYP3A4 = CYP3A4 (Homo sapiens, UniProt P08684); conditions: Supersome CYP3A4; bioactivation of CPF; ref Foxenberg et al. ([2007]); cited from earlier work
Sequence of CYP3A4 (P08684 2-503 limits assumed): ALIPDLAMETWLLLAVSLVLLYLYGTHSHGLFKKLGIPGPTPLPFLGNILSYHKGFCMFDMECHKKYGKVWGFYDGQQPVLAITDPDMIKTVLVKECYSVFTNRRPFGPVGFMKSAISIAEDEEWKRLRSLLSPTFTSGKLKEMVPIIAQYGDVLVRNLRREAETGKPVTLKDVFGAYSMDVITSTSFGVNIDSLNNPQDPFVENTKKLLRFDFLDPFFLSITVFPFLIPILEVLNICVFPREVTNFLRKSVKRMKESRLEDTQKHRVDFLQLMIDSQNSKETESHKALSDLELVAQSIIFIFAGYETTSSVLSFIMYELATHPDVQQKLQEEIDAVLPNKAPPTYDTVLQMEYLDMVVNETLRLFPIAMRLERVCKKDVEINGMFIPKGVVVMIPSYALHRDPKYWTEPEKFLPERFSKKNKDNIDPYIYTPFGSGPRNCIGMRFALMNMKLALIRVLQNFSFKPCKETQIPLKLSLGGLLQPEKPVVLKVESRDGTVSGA

RBC AChE = assay: PBK model-based reverse dosimetry and BMD analysis of RBC AChE inhibition; design: species or system human
Description: In the present study, PBK model-based reverse dosimetry was applied to translate the in vitro rhAChE inhibition concentration–response curve into in vivo RBC AChE inhibition dose–response curves first for the average adult population.
The external dose values thus obtained together with corresponding inhibitory effects were used to construct RBC AChE inhibition dose–response curves for the average population.
A BMD analysis was performed to derive a POD from the predicted in vivo dose–response curves obtained for the average population. In the present study, the BMDL10 values were used as POD based on the fact that the United States Environmental Protection Agency (USEPA) also used a 10% effect level to define a health based guidance value (USEPA [2011], [2014]). BMD analysis was carried out using the Benchmark Dose Software version 3.1.2 (USEPA [2019]), with exponential or hill models because of their adequacy in predicting continuous data. The BMDL10 value with the lowest AIC was chosen and further evaluated by comparing the obtained values with reported BMDL10 by USEPA ([2011], [2014]).

CYP1A2 = target: T1, CYP1A2 (Homo sapiens, UniProt P05177); conditions: bioactivation of CPF, ref Foxenberg et al. [2007]; cited from earlier work
T1 sequence (P05177 2-516 limits assumed): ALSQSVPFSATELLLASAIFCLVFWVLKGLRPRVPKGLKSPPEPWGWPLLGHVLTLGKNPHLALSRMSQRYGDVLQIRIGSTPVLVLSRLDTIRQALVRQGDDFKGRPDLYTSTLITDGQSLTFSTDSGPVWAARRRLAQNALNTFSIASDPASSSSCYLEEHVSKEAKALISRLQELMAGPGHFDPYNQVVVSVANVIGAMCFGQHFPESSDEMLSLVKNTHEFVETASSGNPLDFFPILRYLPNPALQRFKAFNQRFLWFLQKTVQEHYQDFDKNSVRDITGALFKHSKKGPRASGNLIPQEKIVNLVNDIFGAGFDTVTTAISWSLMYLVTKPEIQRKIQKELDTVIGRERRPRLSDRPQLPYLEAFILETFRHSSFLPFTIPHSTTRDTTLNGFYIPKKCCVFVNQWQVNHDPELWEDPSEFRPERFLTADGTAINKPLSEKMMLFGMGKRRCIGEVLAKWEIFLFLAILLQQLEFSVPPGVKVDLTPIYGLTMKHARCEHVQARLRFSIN

[1] = Pathway 2 (CPF to TCPy), pooled HLMs, CPF 3–100 µM, ref Sams et al. ([2004])

CCOP(=S)(OCC)Oc1nc(Cl)c(Cl)cc1Cl [CPF, Chlorpyrifos]
Vmax (high affinity) (pooled HLMs (CYPs); Pathway 1 (CPF to CPO), pooled HLMs, CPF 0.02–10 µM, ref Buratti et al. ([2003])): 0.275 nmol/min/mg microsomal protein
Vmax (low affinity) (pooled HLMs (CYPs); Pathway 1 (CPF to CPO), pooled HLMs, CPF 3–100 µM, ref Sams et al. ([2004])): 0.353 nmol/min/mg microsomal protein
Km (pooled HLMs (CYPs); [1]): 12 µM
Vmax (pooled HLMs (CYPs); [1]): 0.653 nmol/min/mg microsomal protein
Km (pooled HLMs (CYPs); read-out: Km (high affinity), Pathway 1 (CPF to CPO), pooled HLMs, CPF 0.02–10 µM, ref Buratti et al. ([2003])): 0.27 µM
Km (pooled HLMs (CYPs); read-out: Km (low affinity), apparent Km in pooled HLMs, Pathway 1 (CPF to CPO), CPF 3–100 µM, ref Sams et al. ([2004])): 29.8 µM
Km (CYP3A4): 27.3 µM
predicted BMDL10 lower than reported human model-derived BMDL10 (RBC AChE; HLM-based biphasic PBK model versus USEPA [2014]): 1.8 fold
predicted BMDL10 lower than reported human model-derived BMDL10 (RBC AChE; Supersome-based PBK model versus USEPA [2014]): 1.9 fold
BMDL10 of HLM-based approach with biphasic kinetics versus HLM-based approach without high affinity component (RBC AChE; average population): sixfold lower
difference in BMDL10 between HLM-based (biphasic) and Supersome-based PBK model (RBC AChE; average population): 1.04 fold
predicted BMDL10 higher than reported human model-derived BMDL10 (RBC AChE; non-biphasic HLM-based PBK model versus USEPA [2014]): 3.3 fold
Km (CYP1A2): 380 nM
